The source made the active and inactive calls. The rule behind the calls is not given here.
Experiments:
[1] = target: T1, Solute carrier family 2, facilitated glucose transporter member 4 (Rattus norvegicus) (UniProt P19357); test: Induction of GLUT4 translocation in rat L6-GLUT4myc skeletal muscle cells assessed as translocation to cell surface by measuring fold stimulation at 10 uM measured after 1 hr incubation by antibody-coupled colorimetric assay relative to control; format: cell-based; details: filed as modulator
T1 sequence (whole entry): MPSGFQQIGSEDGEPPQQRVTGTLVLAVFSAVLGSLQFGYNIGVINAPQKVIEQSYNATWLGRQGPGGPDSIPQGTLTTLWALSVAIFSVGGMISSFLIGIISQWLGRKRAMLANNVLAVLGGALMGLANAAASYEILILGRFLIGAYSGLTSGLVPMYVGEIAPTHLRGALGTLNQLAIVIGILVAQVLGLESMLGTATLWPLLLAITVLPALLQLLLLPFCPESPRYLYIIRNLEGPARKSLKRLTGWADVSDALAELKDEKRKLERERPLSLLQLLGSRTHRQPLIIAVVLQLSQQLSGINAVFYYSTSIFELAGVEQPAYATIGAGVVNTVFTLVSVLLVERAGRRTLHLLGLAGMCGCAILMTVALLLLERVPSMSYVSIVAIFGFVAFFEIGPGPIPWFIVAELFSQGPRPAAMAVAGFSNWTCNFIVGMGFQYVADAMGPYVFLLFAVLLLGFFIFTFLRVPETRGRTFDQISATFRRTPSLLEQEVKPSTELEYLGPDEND

[2] = target: T1, Solute carrier family 2, facilitated glucose transporter member 4 (Rattus norvegicus); test: Induction of GLUT4 translocation in rat L6-GLUT4myc skeletal muscle cells assessed as translocation to cell surface by measuring fold stimulation at 500 uM measured after 1 hr incubation by antibody-coupled colorimetric assay relative to control; format: cell-based; details: filed as modulator
[3] = target: T1, Solute carrier family 2, facilitated glucose transporter member 4 (Rattus norvegicus); test: Induction of GLUT4 translocation in rat L6-GLUT4myc skeletal muscle cells assessed as translocation to cell surface by measuring fold stimulation measured after 16 hrs incubation by antibody-coupled colorimetric assay relative to control; format: cell-based; details: filed as modulator, dose 5-25 µM
[4] = target: T2, Beta-galactosidase (Homo sapiens) (UniProt P16278); test: Inhibition of beta-galactosidase (unknown origin) at 100 uM relative to control
T2 sequence (whole entry): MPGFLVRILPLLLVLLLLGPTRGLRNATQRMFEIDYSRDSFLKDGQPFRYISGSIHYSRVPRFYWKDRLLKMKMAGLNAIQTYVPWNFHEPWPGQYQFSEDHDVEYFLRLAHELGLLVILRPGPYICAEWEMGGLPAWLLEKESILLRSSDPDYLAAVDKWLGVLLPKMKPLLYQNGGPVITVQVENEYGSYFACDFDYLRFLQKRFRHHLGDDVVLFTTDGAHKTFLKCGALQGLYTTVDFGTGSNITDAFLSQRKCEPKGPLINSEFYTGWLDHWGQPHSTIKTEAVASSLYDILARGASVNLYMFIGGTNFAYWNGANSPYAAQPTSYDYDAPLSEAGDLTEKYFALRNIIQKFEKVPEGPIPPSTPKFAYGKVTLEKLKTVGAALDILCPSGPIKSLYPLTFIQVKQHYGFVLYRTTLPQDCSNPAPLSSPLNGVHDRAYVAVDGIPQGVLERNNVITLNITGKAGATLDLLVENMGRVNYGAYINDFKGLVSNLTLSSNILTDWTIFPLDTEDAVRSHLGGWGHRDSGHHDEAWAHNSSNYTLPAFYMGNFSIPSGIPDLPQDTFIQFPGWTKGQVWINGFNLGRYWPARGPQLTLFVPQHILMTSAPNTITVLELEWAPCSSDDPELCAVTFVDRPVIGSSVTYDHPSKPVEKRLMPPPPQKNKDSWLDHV

[5] = Stability of the compound in simulated gastric fluid (SGF) assessed as compound remaining measured upto 120 mins relative to control; format: ADME; details: read-out: Stability
[6] = Stability of the compound in simulated physiological fluid (SPF) assessed as compound remaining measured upto 120 mins relative to control; format: ADME; details: read-out: Stability
[7] = MRT in Sprague-Dawley rat at 100 mg/kg, po measured after 48 hrs by LC-MS/MS analysis; format: ADME, organism-based; details: in vivo
[8] = system: Rattus norvegicus; test: Antihyperglycemic activity in STZ-induced Sprague-Dawley rat diabetic model assessed as decrease in blood glucose at 100 mg/kg, po measured upto 300 mins; format: functional, organism-based
[9] = target: T1, Solute carrier family 2, facilitated glucose transporter member 4 (Rattus norvegicus); test: Induction of GLUT4 translocation in rat L6-GLUT4myc skeletal muscle cells assessed as translocation to cell surface by measuring fold stimulation at 10 uM measured after 16 hrs incubation in presence of wortmannin PI3 Kinase inhibitor by antibody-coupled colorimetric assay; format: cell-based
[10] = target: RAC-alpha serine/threonine-protein kinase (Rattus norvegicus) (UniProt P47196); test: Induction of AKT phosphorylation at Ser 473 in rat L6-GLUT4myc skeletal muscle cells at 10 uM measured after 16 hrs incubation by immunoblotting analysis; format: cell-based; details: filed as modulator
[11] = Elimination half life in Sprague-Dawley rat at 100 mg/kg, po measured after 48 hrs by LC-MS/MS analysis; format: ADME, organism-based; details: in vivo, read-out: beta t1/2 (converted)
[12] = Cmax in Sprague-Dawley rat at 100 mg/kg, po measured after 48 hrs by LC-MS/MS analysis; format: ADME, organism-based; details: in vivo
[13] = Apparent volume of distribution in Sprague-Dawley rat at 100 mg/kg, po measured after 48 hrs by LC-MS/MS analysis; format: ADME, organism-based; details: in vivo
[14] = target: T1, Solute carrier family 2, facilitated glucose transporter member 4 (Rattus norvegicus); test: Induction of insulin-induced GLUT4 translocation in rat L6-GLUT4myc skeletal muscle cells assessed as translocation to cell surface at 10 uM measured after 16 hrs incubation (final 3 hrs under serum starved medium) followed by stimulated with 100 nM insulin for 20 mins by antibody-coupled colorimetric assay; format: cell-based
[15] = system: L6-GLUT4myc; test: Induction of GPR40 expression in rat L6-GLUT4myc skeletal muscle cells assessed as increase in mRNA level at 10 uM measured after overnight incubation by RT-PCR analysis; format: functional, cell-based; details: filed as activator
[16] = Clearance in Sprague-Dawley rat at 100 mg/kg, po measured after 48 hrs by LC-MS/MS analysis; format: ADME, organism-based; details: in vivo
[17] = Stability of the compound in simulated intestinal fluid (SIF) assessed as compound remaining measured upto 120 mins relative to control; format: ADME; details: read-out: Stability
[18] = Stability of the compound in rat plasma assessed as compound remaining measured upto 120 mins relative to control; format: ADME, cell-free; details: read-out: Stability
[19] = Tmax in Sprague-Dawley rat at 100 mg/kg, po measured after 48 hrs by LC-MS/MS analysis; format: ADME, organism-based; details: in vivo
[20] = target: T1, Solute carrier family 2, facilitated glucose transporter member 4 (Rattus norvegicus); test: Induction of GLUT4 translocation in rat L6-GLUT4myc skeletal muscle cells assessed as translocation to cell surface by measuring fold stimulation at 10 uM measured after 16 hrs incubation in presence of compound c AMPK inhibitor by antibody-coupled colorimetric assay; format: cell-based; details: filed as modulator
[21] = AUC in Sprague-Dawley rat at 100 mg/kg, po measured after 48 hrs by LC-MS/MS analysis; format: ADME, organism-based; details: in vivo

Sequence of RAC-alpha serine/threonine-protein kinase (Rattus norvegicus) (P47196 whole entry): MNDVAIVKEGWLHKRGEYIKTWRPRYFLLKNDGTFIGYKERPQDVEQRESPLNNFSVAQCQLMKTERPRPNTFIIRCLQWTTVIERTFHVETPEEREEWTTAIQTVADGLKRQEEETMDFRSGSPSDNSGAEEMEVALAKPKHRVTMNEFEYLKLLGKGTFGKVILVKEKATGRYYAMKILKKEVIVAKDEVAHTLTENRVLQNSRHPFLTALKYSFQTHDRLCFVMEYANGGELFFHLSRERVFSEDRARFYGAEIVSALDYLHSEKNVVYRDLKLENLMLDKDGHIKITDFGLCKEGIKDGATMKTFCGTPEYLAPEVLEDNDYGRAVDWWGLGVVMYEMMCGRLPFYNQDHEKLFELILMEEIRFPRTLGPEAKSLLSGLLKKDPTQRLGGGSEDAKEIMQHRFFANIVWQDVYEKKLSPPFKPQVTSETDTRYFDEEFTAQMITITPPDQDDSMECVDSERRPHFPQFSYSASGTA

SMILES	fold change (FC) [1]	further results
CSc1ccc(C2C(C(=O)NCCc3c[nH]c4ccccc34)=C(C)NC3=C2C(=O)CC(C)(C)C3)cc1 (stereo not drawn)	1.33	
CN(C)C(=N)NC(=N)N		fold change (FC) [2]: 1.86
NCCc1c[nH]c2ccccc12	1.08	
COc1cc(C2C(C(=O)NCCc3c[nH]c4ccccc34)=C(C)NC3=C2C(=O)CCC3)cc(OC)c1OC (stereo not drawn)	1.79	Activity [3]: Dose-Dependent Effect
CC1=C(C(=O)NCCc2c[nH]c3ccccc23)C(c2cccc([N+](=O)[O-])c2)C2=C(CCCC2=O)N1 (stereo not drawn)	1.71	
CCOC(=O)C1=C(C)NC2=C(C(=O)CC(C)(C)C2)C1c1ccc(Cl)c(Cl)c1 (stereo not drawn)	1.92	
CC1=C(C(=O)NCCc2c[nH]c3ccccc23)C(c2c(Cl)cccc2Cl)C2=C(CC(C)(C)CC2=O)N1 (stereo not drawn)	0.82	
CC1=C(C(=O)NCCc2c[nH]c3ccccc23)C(c2ccco2)C2=C(CCCC2=O)N1 (stereo not drawn)	1.62	
CC1=C(C(=O)Nc2ccccc2)C(c2ccc(Cl)c(Cl)c2)C2=C(CC(C)(C)CC2=O)N1 (stereo not drawn)	1.1	
Cc1nc2c(c(-c3ccc(Cl)c(Cl)c3)c1C(=O)NCCc1c[nH]c3ccccc13)C(=O)CC(C)(C)C2	1.42	
COc1cc(C2C(C(=O)NCCc3c[nH]c4ccccc34)=C(C)NC3=C2C(=O)CC(C)(C)C3)cc(OC)c1OC (stereo not drawn)	1.21	
CC1=C(C(=O)NCCc2c[nH]c3ccccc23)C(c2ccc(O)c(O)c2)C2=C(CC(C)(C)CC2=O)N1 (stereo not drawn)	0.99	
COc1ccc(C2C(C(=O)NCCc3c[nH]c4ccccc34)=C(C)NC3=C2C(=O)CC(C)(C)C3)cc1 (stereo not drawn)	1.39	
CC1=C(C(=O)NCCc2c[nH]c3ccccc23)C(c2ccc([N+](=O)[O-])cc2)C2=C(CC(C)(C)CC2=O)N1 (stereo not drawn)	1.72	
CC1=C(C(=O)NCCc2c[nH]c3ccccc23)C(c2ccc(F)cc2)C2=C(CCCC2=O)N1 (stereo not drawn)	1.54	
CC1=C(C(=O)NCCc2c[nH]c3ccccc23)C(c2ccc(Cl)cc2)C2=C(CC(C)(C)CC2=O)N1 (stereo not drawn)	1.49	
O=C(NC(Cc1c[nH]c2ccccc12)C(=O)O)c1cccc(Cl)c1 (stereo not drawn)		inhibition [4]: 49%
CC1=C(C(=O)NCCc2c[nH]c3ccccc23)C(c2ccc(Cl)c(Cl)c2)C2=C(CC(C)(C)CC2=O)N1 (stereo not drawn)	2.96	remaining at 2 h [5]: 90.8%; remaining at 2 h [6]: 96.2%; MRT [7]: 20.8 h; Activity [8]: Active; Activity [9]: inactive; Activity [10]: Active; half-life [11]: 14.3 h; Cmax [12]: 51.7 ng/mL; Vd(app) [13]: 5281.28 L/kg; Activity [14]: inactive; Activity [15]: Active; CL/F [16]: 254 L/h/kg; Activity [3]: Dose-Dependent Effect; remaining at 2 h [17]: 91.1%; remaining at 2 h [18]: 90.2%; Tmax [19]: 0.42 h; Activity [20]: Active; AUC at 48 h [21]: 367 ng·h/mL

SMILES	fold change (FC) [1]	further results
CC1=C(C(=O)NCCc2c[nH]c3ccccc23)C(c2cccc([N+](=O)[O-])c2)C2=C(CC(C)(C)CC2=O)N1 (stereo not drawn)	1.86	Activity [3]: Dose-Dependent Effect
CC1=C(C(=O)NCCc2c(C)[nH]c3ccccc23)C(c2ccc(Cl)c(Cl)c2)C2=C(CC(C)(C)CC2=O)N1 (stereo not drawn)	1.42	
CC1=C(C(=O)NCCc2c[nH]c3ccccc23)C(c2ccco2)C2=C(CC(C)(C)CC2=O)N1 (stereo not drawn)	2.01	Activity [3]: Dose-Dependent Effect
COc1ccc2[nH]cc(CCNC(=O)C3=C(C)NC4=C(C(=O)CC(C)(C)C4)C3c3ccc(Cl)c(Cl)c3)c2c1 (stereo not drawn)	1.37	
CC1=C(C(=O)NCCc2c[nH]c3ccccc23)C(c2ccc(OC(F)(F)F)cc2)C2=C(CC(C)(C)CC2=O)N1 (stereo not drawn)	2.11	Activity [3]: Dose-Dependent Effect
CC(=O)CC(=O)NCCc1c[nH]c2ccccc12	1.18	
CC1=C(C(=O)NCCc2c[nH]c3ccccc23)C(c2ccc(C#N)cc2)C2=C(CC(C)(C)CC2=O)N1 (stereo not drawn)	0.96	
CC1=C(C(=O)NCCc2c[nH]c3ccccc23)C(c2ccsc2)C2=C(CC(C)(C)CC2=O)N1 (stereo not drawn)	1.87	Activity [3]: Dose-Dependent Effect
CC1=C(C(=O)NCCc2c[nH]c3ccccc23)C(c2scnc2C)C2=C(CC(C)(C)CC2=O)N1 (stereo not drawn)	1	
CC1=C(C(=O)NCCc2c[nH]c3ccccc23)C(c2cccc(Cl)c2Cl)C2=C(CC(C)(C)CC2=O)N1 (stereo not drawn)	1.52	
COc1ccc(C2C(C(=O)NCCc3c[nH]c4ccccc34)=C(C)NC3=C2C(=O)CC(C)(C)C3)cc1OC (stereo not drawn)	1.3	
CC1=C(C(=O)NCCc2c[nH]c3ccccc23)C(c2ccc(C(F)(F)F)cc2)C2=C(CC(C)(C)CC2=O)N1 (stereo not drawn)	1.58	
CC1=C(C(=O)NCCc2c[nH]c3ccccc23)C(c2ccsc2)C2=C(CCCC2=O)N1 (stereo not drawn)	1.64	
CCNC(=O)C1=C(C)NC2=C(C(=O)CC(C)(C)C2)C1c1ccc(Cl)c(Cl)c1 (stereo not drawn)	1.16	
COc1ccc(C2C(C(=O)NCCc3c[nH]c4ccccc34)=C(C)NC3=C2C(=O)CCC3)cc1OC (stereo not drawn)	1.48	
CC1=C(C(=O)NCCc2c[nH]c3ccccc23)C(c2cccs2)C2=C(CC(C)(C)CC2=O)N1 (stereo not drawn)	1.09	
CC1=C(C(=O)NCCc2c[nH]c3ccccc23)C(c2ccc(F)cc2)C2=C(CC(C)(C)CC2=O)N1 (stereo not drawn)	1	

Reference: ChEMBL document CHEMBL5523755, “Design, Synthesis, and Biological Evaluation of 1,4-Dihydropyridine-Indole as a Potential Antidiabetic Agent via GLUT4 Translocation Stimulation” (J Med Chem, 2024)
